Activity calls are given as the source filed them. No cut-off for these calls is given here.
What was measured:
[1] = (§1) Positive inotropic effect in rabbit left atrium assessed as increase in stroke volume at 3 x 10^-5 M measured for 2 mins relative to control; type: functional, Oryctolagus cuniculus, Cardiac atrium
[2] = species on record: Oryctolagus cuniculus; test: Positive inotropic effect in rabbit left atrium assessed as increase in stroke volume at 1 x 10^-4 M measured for 2 mins; type: functional, tissue-based; settings: Cardiac atrium
[3] = species on record: Oryctolagus cuniculus; test: Chronotropic effect in rabbit heart assessed as change in heart rate at 3 x 10^-5 M by electrocardiogram analysis relative to control; type: ADME, organism-based; settings: in vivo, 30 µM
[4] = Ratio of compound activity to milrinone activity for increase in stroke volume in rabbit left atrium at 3 x 10^-5 M; type: functional, Oryctolagus cuniculus, Cardiac atrium
[5] = species on record: Oryctolagus cuniculus; test: as §1; type: functional; settings: Cardiac atrium

Row | Structure (SMILES) | Activity [1] | other results
1 | O=C(CN1CCN(Cc2cccc(F)c2)CC1)Nc1ccc2c(c1)CCc1nnc(-c3cccc(Cl)c3)n1-2 | 6.33% | 
2 | CCCCCN1CCN(CC(=O)Nc2ccc3c(c2)CCc2nnc(-c4cccc(Cl)c4)n2-3)CC1 | 0.8% | 
3 | O=C(CN1CCN(Cc2ccccc2F)CC1)Nc1ccc2c(c1)CCc1nnc(-c3cccc(Cl)c3)n1-2 | 20.29% | Activity [2]: Active; Activity [3]: Non-toxic; Ratio [4]: 8.2
4 | CCCCN1CCN(CC(=O)Nc2ccc3c(c2)CCc2nnc(-c4cccc(Cl)c4)n2-3)CC1 | 2.33% | 
5 | Cc1ccc(CN2CCN(CC(=O)Nc3ccc4c(c3)CCc3nnc(-c5cccc(Cl)c5)n3-4)CC2)cc1 | 4.25% | 
6 | O=C(CN1CCN(Cc2ccc(Br)cc2)CC1)Nc1ccc2c(c1)CCc1nnc(-c3cccc(Cl)c3)n1-2 | 2.31% | 
7 | O=C(CN1CCN(Cc2ccccc2)CC1)Nc1ccc2c(c1)CCc1nnc(-c3ccccc3Cl)n1-2 | 15.62% | Activity [3]: Non-toxic
8 | O=C(CN1CCN(Cc2ccc(F)cc2)CC1)Nc1ccc2c(c1)CCc1nnc(-c3ccccc3Cl)n1-2 | 4.58% | 
9 | COc1ccc(CN2CCN(CC(=O)Nc3ccc4c(c3)CCc3nnc(-c5ccccc5Cl)n3-4)CC2)cc1 | 9.12% | 
10 | O=C(CN1CCN(Cc2cccc(Cl)c2)CC1)Nc1ccc2c(c1)CCc1nnc(-c3ccccc3Cl)n1-2 | 2.18% | 
11 | O=C(CN1CCN(Cc2ccc(F)cc2)CC1)Nc1ccc2c(c1)CCc1nnc(-c3cccc(Cl)c3)n1-2 | 16.49% | Activity [3]: Non-toxic
12 | Cc1[nH]c(=O)c(C#N)cc1-c1ccncc1 [MILRINONE] | 2.46% | 
13 | O=C(CN1CCN(Cc2ccc(Cl)cc2Cl)CC1)Nc1ccc2c(c1)CCc1nnc(-c3cccc(Cl)c3)n1-2 |  | Activity [5]: inactive
14 | CCCCCCN1CCN(CC(=O)Nc2ccc3c(c2)CCc2nnc(-c4cccc(Cl)c4)n2-3)CC1 |  | Activity [5]: inactive
15 | COc1ccc(CN2CCN(CC(=O)Nc3ccc4c(c3)CCc3nnc(-c5cccc(Cl)c5)n3-4)CC2)cc1 | 16.84% | Activity [2]: Active; Activity [3]: Non-toxic
16 | O=C(CN1CCN(Cc2ccccc2Br)CC1)Nc1ccc2c(c1)CCc1nnc(-c3cccc(Cl)c3)n1-2 |  | Activity [5]: inactive
17 | O=C(CN1CCN(Cc2ccc(Cl)c(Cl)c2)CC1)Nc1ccc2c(c1)CCc1nnc(-c3cccc(Cl)c3)n1-2 |  | Activity [5]: inactive
18 | O=C(CN1CCN(Cc2ccccc2F)CC1)Nc1ccc2c(c1)CCc1nnc(-c3ccccc3Cl)n1-2 | 2.39% | 
19 | O=C(CN1CCN(Cc2ccc(Cl)cc2)CC1)Nc1ccc2c(c1)CCc1nnc(-c3cccc(Cl)c3)n1-2 | 7.22% | 
20 | O=C(CN1CCN(Cc2ccccc2Cl)CC1)Nc1ccc2c(c1)CCc1nnc(-c3cccc(Cl)c3)n1-2 | 0.8% | 
21 | O=C(CN1CCN(Cc2cccc(Cl)c2)CC1)Nc1ccc2c(c1)CCc1nnc(-c3cccc(Cl)c3)n1-2 | 15.75% | Activity [3]: Toxic
22 | O=C(CN1CCN(Cc2cccc(Br)c2)CC1)Nc1ccc2c(c1)CCc1nnc(-c3cccc(Cl)c3)n1-2 |  | Activity [5]: inactive
23 | O=C(CN1CCN(Cc2ccccc2)CC1)Nc1ccc2c(c1)CCc1nnc(-c3cccc(Cl)c3)n1-2 | 8.07% | 
24 | CCCCCCCCN1CCN(CC(=O)Nc2ccc3c(c2)CCc2nnc(-c4cccc(Cl)c4)n2-3)CC1 |  | Activity [5]: inactive

Reference: ChEMBL document CHEMBL2331142, “Synthesis of new triazole acetamides with inotropic effects” (Bioorg Med Chem Lett, 2013)
